Assay results reported in article PMC4067742, “Direct Observations of Amyloid β Self-Assembly in Live Cells Provide Insights into Differences in the Kinetics of Aβ(1–40) and Aβ(1–42) Aggregation” (Chemistry & Biology, 2014).
Several values for one entry are separate records, joined by “and”; a condition that tells them apart may be missing. Identical values can stand only once.

Assays:
[1] = system: SH-SY5Y human neuroblastoma cells; test: Confocal microscopy of uptake and intracellular localization; format: cell-based; conditions: for intracellular HF488 fluorescence (uptake) after 30 min: 500 nM monomeric peptide in medium, colocalized with endocytosis marker FM 4–64; for intracellular HF488 fluorescence (uptake) after 30 min / intracellular localization after 24 hr: confocal fluorescence; for intracellular localization after 24 hr: 500 nM peptide 24 hr, then 1 hr with 100 nM LysoTracker red; for uptake at 4°C: 1 hr at 4°C (inhibits endocytosis) compared with 37°C, cells washed before confocal imaging
Experimental: Aβ peptides have been reported to be internalized into a variety of cell types, including neurons ([Burdick et al., 1997; Friedrich et al., 2010; Hu et al., 2009; Kaminski Schierle et al., 2011b; McGuire et al., 2012]). To characterize the uptake and intracellular localization of the peptides under the conditions used in our study, we added aliquots of monomeric ^HF488Aβ(1–40) or ^HF488Aβ(1–42) to cultures of SH-SY5Y human neuroblastoma cells to give a total peptide concentration of 500 nM in the cellular medium. […] The neuronal cells were also incubated for 1 hr at 37°C and at 4°C to compare uptake under conditions that, respectively, permit or inhibit endocytosis.
Human neuroblastoma cells (SH-SY5Y) were grown in 1:1 minimal essential medium (MEM) and nutrient mixture F-12 Ham (Sigma-Aldrich) with sodium bicarbonate, including 15% heat-inactivated fetal bovine serum, 1% MEM non-essential amino acids, 2 mM […], 1% penicillin-streptomycin (10,000 U/ml K1), and 0.1% fungizone (amphotericin B, […] K1) (Life Technologies). Cells were plated 1 day prior to experiments in glass-bottomed culture dishes (MatTek) at a density of 50,000 cells/14-mm dish. All samples were washed once in CO2-independent, serum- and phenol red-free medium (prepared as above but with exclusion of serum and addition of 30 mM HEPES and B12 supplement [Gibco]). All experiments with cells were performed in at least duplicates and repeated at least three times. The Aβ concentration was 500 nM in all experiments.
All uptake and colocalization experiments were carried out with the HF488-labeled Aβ peptides using a Leica SP5 confocal microscope (Leica Microsystems). For colocalization with FM 4–64 (Life Technologies), 5 μg/ml of the dye was added together with the peptide, and images were recorded after 1 hr of incubation. Both dyes were excited by the 488-nm laser line. HF488 emission was collected from 520–580 nm and FM 4–64 emission between 700–800 nm. For colocalization with LysoTracker red (Life Technologies), cells were incubated with HF488-labeled peptide for 24 hr, washed once with serum-free medium, and thereafter incubated for 1 hr with 100 nM LysoTracker red before images were recorded. LysoTracker red was excited using the […] laser line, and emission was collected between 700–800 nm. Sequential acquisition was used in all experiment to avoid bleed-through and cross-excitation. Cellular uptake at 4°C was assessed by keeping the cells in a cold room during incubation. The cells were washed prior to imaging to avoid uptake while observing the cells on the microscope.

[2] = system: SH-SY5Y cells; test: Live cell FLIM of intracellular aggregation; format: cell-based, human; conditions: 500 nM peptide in culture medium; for lag phase of intracellular aggregation: 0–48 hr, live cell FLIM (Figure 4D)
Excerpt: Having established that the fluorescence lifetime of HF488 acts as a reporter of amyloid formation of Aβ(1–40) and Aβ(1–42), we set out to investigate how the aggregation state of each of the two peptide isoforms is affected by its cellular uptake and accumulation in acidic organelles in SH-SY5Y cells. Using FLIM, we observed that there are no significant differences (p = 0.95, Table S1) in the fluorescence lifetimes of extracellular and internalized ^HF488Aβ(1–40) during the first 6 hr after application of 500 nM peptide to the culture medium (Figures 4A and 4D), indicating the presence of similar ^HF488Aβ(1–40) species within the cells as those applied to the extracellular environment. […] We then examined the cells treated with the same concentration of ^HF488Aβ(1–40) for 24 and 48 hr (Figures 4C and 4D), washing them prior to imaging to remove any extracellular fluorescence. […] The difference compared with the extracellular starting value, however, is statistically significant first after 48 hr (p = 0.0032, Table S1). […]
All FLIM experiments were carried out using HF488-labeled Aβ peptides, and images were recorded by time-correlated single photon counting (TCSPC) using a confocal microscopy platform built on an Olympus Fluoview FV300 confocal scan unit. […] The excitation beam was reflected onto the sample with a 20/80 broad bandwidth coated beam splitter so that 20% of the excitation light passed on to the sample and 80% of the fluorescence signal was reflected toward the confocal pinhole. The fluorescence light was passed through a 515-nm Semrock long-pass filter (Laser 2000) and passed onto a fast photomultiplier tube (PMC-100, Becker & Hickl). Lifetimes were recorded using TCSPC circuitry (SPC-830, Becker & Hickl). […] The instrument response was measured using reflected light from either a coverslip or a coated mirror. […]

| Substance | intracellular HF488 fluorescence (uptake) after 30 min [1] | intracellular localization after 24 hr [1] | cellular uptake after 10 minutes ([1]; 500 nM peptide, 10 minutes, confocal fluorescence with Z-scanning (Figure S3)) | uptake at 4°C ([1]; 500 nM peptide) | lag phase of intracellular aggregation [2] | endpoint value of intracellular fluorescence lifetime ([2]; endpoint (48h, p = 0.22 Table S2), cells washed once, live cell FLIM) |
| --- | --- | --- | --- | --- | --- | --- |
| ^HF488Aβ(1–40): Synthetic 40-residue amyloid β peptide labeled at the N terminus with Hilyte Fluor 488, purchased from Anaspec | observed readily | colocalize with LysoTracker red | vesicular uptake | did not internalize any detectible quantities | appears to exhibit a lag phase | 3.35 ± 0.2 ns and 3.31 ± 0.2 ns |
| ^HF488Aβ(1–42): Synthetic 42-residue amyloid β peptide labeled at the N terminus with Hilyte Fluor 488, purchased from Anaspec | observed readily | colocalize with LysoTracker red |  | did not internalize any detectible quantities | shows no such effect |  |
